Read-outs that look alike come from different tables or passages of the source.
Key:
[1] = system: scopolamine-induced amnesic mice; assay: Y-maze test, scopolamine-induced amnesia
Description: A total of sixteen groups of mice, with six in each group, were used in the experiment. Vehicle treated group (Normal control group) were administered 10 mL/kg (p.o) of normal saline. […] Sample treatment groups were administered 7.5 mg/kg and 15 mg/kg (p.o) of synthesized compounds, respectively.
The dimensions of the arms were 15.5 cm high, 6 cm wide, 20 cm long and connected with each other with an angle of 120°. This test was conducted for a 5 min duration for each animal. The order and number of arm entries made by each animal after placing in one arm were recorded. Complete arm entry in any given arm was considered to be when the hind paws were completely inside, and the alternation was the consecutive arm entries into three different arms by each mouse. Ethanol 70% v/v solution was used to clean the Y-maze arena to avoid olfactory cues between each test. […] Mice were freely allowed to explore the objects when they were initially placed at the center of the apparatus. The formula was used to calculate the %SAP by recording the same arm returns (SAR), alternate arm returns (AAR) and the number of arm entries.

AChE = biological target: T1, AChE (Electrophorus electricus, UniProt O42275); assay: biochemical
T1 construct: The enzymes AChE and BuChE were obtained from electric eel and equine serum, respectively; from tissue; host or cells: electric eel
Description: (§1) The in vitro cholinesterase assay of the synthesized curcumin analogs were carried out according to the Ellman’s method with slight modification. The enzymes AChE and BuChE were obtained from electric eel and equine serum, respectively. […] The final concentrations of AChE 0.03 U/mL and 0.01 U/mL of BuChE were achieved. […] The experiment was started by adding 5 µL enzyme solutions to cuvette, then 205 µL test sample and 5 µL DTNB reagents were added. Substrate solution (5 µL) was added, and the solution mixture was kept in a water bath for 15 min at 30 °C.

BuChE = biological target: T2, BuChE (Equus caballus, UniProt P81908); assay: biochemical
T2 construct: The enzymes AChE and BuChE were obtained from electric eel and equine serum, respectively; from tissue; host or cells: equine serum
Description: as §1

[2] = biological target: T3, AChE activity in the hippocampi of mice brains (Mus musculus, UniProt P21836); assay type: in vivo; settings: ex vivo, vs scopolamine treated group, n = 6
T3 construct: from tissue; host or cells: mouse bilateral hippocampus homogenate, supernatant
T3 sequence (P21836 32-614): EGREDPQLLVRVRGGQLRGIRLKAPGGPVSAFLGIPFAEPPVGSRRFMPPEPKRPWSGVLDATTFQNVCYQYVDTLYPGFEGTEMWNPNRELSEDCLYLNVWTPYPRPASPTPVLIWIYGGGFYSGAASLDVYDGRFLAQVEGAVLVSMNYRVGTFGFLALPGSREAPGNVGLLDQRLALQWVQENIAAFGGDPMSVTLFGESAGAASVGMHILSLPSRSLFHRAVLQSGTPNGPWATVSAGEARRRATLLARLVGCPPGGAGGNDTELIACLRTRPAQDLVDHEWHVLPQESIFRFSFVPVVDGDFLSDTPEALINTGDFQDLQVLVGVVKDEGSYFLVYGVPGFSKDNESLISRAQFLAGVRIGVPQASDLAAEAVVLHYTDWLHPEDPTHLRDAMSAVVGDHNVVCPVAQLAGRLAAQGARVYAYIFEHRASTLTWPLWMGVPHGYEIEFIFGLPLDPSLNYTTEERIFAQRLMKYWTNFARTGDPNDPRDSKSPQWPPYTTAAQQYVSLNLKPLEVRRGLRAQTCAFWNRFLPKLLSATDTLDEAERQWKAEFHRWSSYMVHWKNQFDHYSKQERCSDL
Description: (§2) After the behavioral study, the mice were sacrificed by decapitation, providing a quick and painless death by cervical dislocation. The isolated brain of each animal in chilled phosphate buffer saline was subjected into biomarker assays using AChE and BuChE enzymes.
Mice were sacrificed within 24 h of the behavior study; brains were dissected and stored at −80 °C. […] Supernatant was used for the measurement of cholinesterase (AChE and BuChE) activity.
Acetylcholine/Acetyl cholinesterase assay Kit was used for the determination of AChE activity, according to the standard procedure. The assay was carried out using 96-well plate, and every reaction comprised of 100 µL sample, 200 µM Amplex Red reagent, 50 µM of acetylcholine, 1 U/mL horseradish peroxidase (HRP) and 0.1 U/mL choline oxidase in buffer solution. Incubation period for the reaction mixture was 20 min at room temperature in the dark. The fluorescence intensity at 560 nm excitation and 580 nm emission wavelength was measured.

[3] = biological target: T4, BuChE activity in the hippocampi of mice brains (Mus musculus, UniProt Q03311); assay: Ex vivo BuChE activity in the brain hippocampus; settings: vs scopolamine treated group, n = 6
T4 construct: from tissue; host or cells: mouse bilateral hippocampus homogenate, supernatant
Description: as §2
Mice were sacrificed within 24 h of the behavior study; brains were dissected and stored at −80 °C. The bilateral hippocampus was homogenized before the assay into volumes of 0.01 M phosphate buffer (2.7 mM KCl, 137 mM NaCl, 2 mM KH2PO4, 10 mM Na2HPO4) and centrifuged at 4 °C for 30 min at 12,000× g. Supernatant was used for the measurement of cholinesterase (AChE and BuChE) activity.
Butyrylcholinesterase (BuChE) activity of the synthesized compounds were measured according to Ellman method with slight modification. BuSCh was hydrolyzed by BuChE and choline iodide produced, which reacted with DNTB, and then the production of TNB. The TNB was quantitated by calorimetry that indicated the BuChE activity. BuChE assay was accomplished in 96-well plate and every reaction mixture contained 40 µL sample, 80 µL DTNB (0.25 mg/mL) and 70 µL BuSCh (7.5 mM). The absorbance was determined at 37 °C after incubation for 60 min.

[4] = system: scopolamine-induced amnesic mice; assay: Elevated plus maze (EPM), scopolamine-induced amnesia; assay type: in vivo
Text: Elevated plus maze paradigm is an important behavioral model for evaluation of anti-amnesic potentials in mice. This apparatus comprised of two open and two closed arms with dimensions of 16 cm × 5 cm × 12 cm and elevated 25 cm from the floor on a wooden stand. The EPM was designed in plus shape from two acrylic sheets having a central platform with dimensions of 5 cm × 5 cm. Initially, mice were placed in one of the open arms in such a way that it was directed away from the central platform. Then TLT was recorded after the mice moved to the closed arm, with their four legs from the open arm and then the mice were returned to their home cage. The time of exploration of the apparatus for each animal was 90 s. […] Reduction of TLT indicated memory-enhancing effect of the test samples. The inflexion ratio (IR) was calculated as: IR=L0−L1/L0 where L1 presents the initial transfer latency (s), and L0 is the retention transfer latency (s).

[5] = system: scopolamine-induced amnesic mice; assay: Novel object recognition test (NORT), scopolamine-induced amnesia; assay type: in vivo
Description: In this study, the memory-enhancing potentials of synthesized compounds were determined using novel object recognition test mice model. Dimensions of the apparatus were 40 cm × 40 cm × 30 cm and designed from Plexiglass in a box shape. After acclimatization, the mice were habituated with the apparatus for 2–3 min one day before the test. Initially, in the sample phase, two identical objects were placed in the two corners of the apparatus and the mice were allowed to freely explore the apparatus. The objects in the apparatus were explored by each animal either by touching the objects or keeping their noses within 2 cm of them. […] Mice were allowed again to freely explore both the objects in a similar way as in sample phase, and the time spent by each animal exploring the novel and familiar object (F) was recorded.
The following formula was used for calculation of discrimination index. D1=N—F /N+F
D1 = discrimination index; N = novel object; F = familiar object

[6] = 7.5 mg/kg p.o. 7 days, scopolamine 1 mg/kg i.p.
[7] = 15 mg/kg p.o. 7 days, scopolamine 1 mg/kg i.p.
[8] = AChE from electric eel, Ellman's method, n = 3, read-out: AChEI (IC50 (nM))
[9] = BuChE from equine serum, Ellman's method, n = 3, read-out: BuChEI (IC50 (nM))
[10] = long-term memory (after 24 h), 7.5 mg/kg
[11] = long-term memory (after 24 h), 15 mg/kg
[12] = short-term memory, donepezil 2 mg/kg
[13] = short-term memory, test phase, donepezil 2 mg/kg

T1 sequence (O42275 24-633): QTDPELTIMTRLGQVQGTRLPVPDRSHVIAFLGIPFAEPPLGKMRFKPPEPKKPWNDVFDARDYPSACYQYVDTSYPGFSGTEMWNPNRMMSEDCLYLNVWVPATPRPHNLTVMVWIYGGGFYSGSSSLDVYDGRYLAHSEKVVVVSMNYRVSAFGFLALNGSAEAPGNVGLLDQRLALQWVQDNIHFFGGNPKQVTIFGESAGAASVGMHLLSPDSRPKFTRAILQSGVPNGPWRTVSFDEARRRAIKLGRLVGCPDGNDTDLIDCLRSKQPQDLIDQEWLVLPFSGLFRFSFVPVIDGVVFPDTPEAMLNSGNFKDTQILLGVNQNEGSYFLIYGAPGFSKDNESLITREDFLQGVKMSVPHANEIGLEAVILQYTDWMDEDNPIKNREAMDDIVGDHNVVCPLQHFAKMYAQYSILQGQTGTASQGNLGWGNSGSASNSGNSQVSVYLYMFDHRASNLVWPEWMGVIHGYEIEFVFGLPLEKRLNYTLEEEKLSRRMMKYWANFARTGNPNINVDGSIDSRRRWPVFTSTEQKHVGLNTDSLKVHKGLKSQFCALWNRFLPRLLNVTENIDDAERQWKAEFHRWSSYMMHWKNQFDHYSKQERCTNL
T2 sequence (P81908 whole entry): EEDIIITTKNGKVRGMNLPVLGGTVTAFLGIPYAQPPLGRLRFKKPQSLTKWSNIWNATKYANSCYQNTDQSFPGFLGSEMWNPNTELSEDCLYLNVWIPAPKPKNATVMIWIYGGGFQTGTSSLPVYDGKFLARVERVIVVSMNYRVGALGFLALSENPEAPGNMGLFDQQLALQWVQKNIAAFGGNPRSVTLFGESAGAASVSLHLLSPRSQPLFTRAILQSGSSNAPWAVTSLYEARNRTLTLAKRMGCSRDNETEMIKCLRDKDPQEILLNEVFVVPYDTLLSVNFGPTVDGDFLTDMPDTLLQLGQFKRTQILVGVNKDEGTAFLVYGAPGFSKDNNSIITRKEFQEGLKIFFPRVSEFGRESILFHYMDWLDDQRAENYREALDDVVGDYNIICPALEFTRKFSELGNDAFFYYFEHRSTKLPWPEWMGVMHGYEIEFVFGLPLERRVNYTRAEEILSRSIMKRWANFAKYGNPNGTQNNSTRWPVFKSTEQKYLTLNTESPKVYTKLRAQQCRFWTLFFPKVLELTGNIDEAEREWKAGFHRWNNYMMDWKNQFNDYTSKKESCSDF
T4 sequence (Q03311 30-603): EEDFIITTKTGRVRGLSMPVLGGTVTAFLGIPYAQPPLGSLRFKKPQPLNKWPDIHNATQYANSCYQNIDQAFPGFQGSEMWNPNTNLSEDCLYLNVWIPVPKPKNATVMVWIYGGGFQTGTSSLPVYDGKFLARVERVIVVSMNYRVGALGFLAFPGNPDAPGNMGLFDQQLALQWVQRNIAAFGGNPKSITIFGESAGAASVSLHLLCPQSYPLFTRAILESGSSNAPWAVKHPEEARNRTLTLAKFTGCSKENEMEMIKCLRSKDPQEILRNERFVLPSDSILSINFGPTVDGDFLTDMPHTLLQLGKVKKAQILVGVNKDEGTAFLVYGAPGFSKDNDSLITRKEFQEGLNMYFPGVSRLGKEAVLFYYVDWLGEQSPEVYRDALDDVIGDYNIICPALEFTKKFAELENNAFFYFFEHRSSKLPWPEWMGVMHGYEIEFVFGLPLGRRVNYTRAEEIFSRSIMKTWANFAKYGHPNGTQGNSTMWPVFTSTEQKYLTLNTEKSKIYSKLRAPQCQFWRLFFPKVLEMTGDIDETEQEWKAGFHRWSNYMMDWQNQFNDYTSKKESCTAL

O=C(/C=C/c1ccc(Cl)cc1)CC(=O)/C=C/c1ccc(Cl)cc1 [Compound 1d, (1E,6E)-1,7-bis(4-chlorophenyl)hepta-1,6-diene-3,5-dione]
% spontaneous alternation performance (% SAP) [1, 6]: 55.66 ± 2.82%
% spontaneous alternation performance (% SAP) [1, 7]: 67.66 ± 2.84%
IC50 (AChE; [8]): 113 nM
IC50 (BuChE; [9]): 378 nM
effect on scopolamine-increased AChE activity in hippocampus [2]: markedly reduced the increased activity of AChE
effect on scopolamine-increased BuChE activity in hippocampus [3]: decreased the increased BuChE activity
effect on TLT vs amnesic group [4, 6]: significantly reduced TLT
effect on TLT vs amnesic group [4, 7]: significantly reduced TLT
discrimination index (DI) [5, 10]: 63.78%
discrimination index (DI) [5, 11]: 64.61%
discrimination index (DI) ([5]; short-term memory, 7.5 mg/kg): 61.43%
discrimination index (DI) ([5]; short-term memory, 15 mg/kg): 62.03%

Cc1ccc(/C=C/C(=O)CC(=O)/C=C/c2ccc(C)cc2)cc1 [Compound 1b, (1E,6E)-1,7-di-p-tolylhepta-1,6-diene-3,5-dione]
% spontaneous alternation performance (% SAP) [1, 6]: poor response
% spontaneous alternation performance (% SAP) [1, 7]: poor response
IC50 (AChE; [8]): 734 nM
IC50 (BuChE; [9]): 2160 nM
effect on scopolamine-increased AChE activity in hippocampus [2]: markedly reduced the increased activity of AChE
effect on TLT vs amnesic group [4, 6]: non-significant
effect on TLT vs amnesic group [4, 7]: poor response
discrimination index (DI) [5, 10]: 52.45%
discrimination index (DI) [5, 11]: 53.61%
discrimination index (DI) ([5]; short-term memory, 7.5 mg/kg): 55.68%
discrimination index (DI) ([5]; short-term memory, 15 mg/kg): 57.47%

O=C(/C=C/c1ccc([N+](=O)[O-])cc1)CC(=O)/C=C/c1ccc([N+](=O)[O-])cc1 [Compound 1f, (1E,6E)-1,7-bis(4-nitrophenyl)hepta-1,6-diene-3,5-dione]
% spontaneous alternation performance (% SAP) [1, 6]: non-significant
% spontaneous alternation performance (% SAP) [1, 7]: non-significant
IC50 (AChE): 5840 nM
IC50 (BuChE): 9660 nM
effect on TLT vs amnesic group [4, 6]: non-significant
effect on TLT vs amnesic group [4, 7]: non-significant
discrimination index (DI) [5, 10]: no significant change
discrimination index (DI) [5, 11]: no significant change
discrimination index (DI) ([5]; short-term memory, 7.5 mg/kg): no promising potential
discrimination index (DI) ([5]; short-term memory, 15 mg/kg): no promising potential

COc1ccc(/C=C/C(=O)CC(=O)/C=C/c2ccc(OC)cc2)cc1 [Compound 1c, (1E,6E)-1,7-bis(4-methoxyphenyl)hepta-1,6-diene-3,5-dione]
% spontaneous alternation performance (% SAP) [1, 6]: 47.16 ± 2.77%
% spontaneous alternation performance (% SAP) [1, 7]: 62.33 ± 184%
IC50 (AChE; [8]): 467 nM
IC50 (BuChE; [9]): 1360 nM
effect on scopolamine-increased AChE activity in hippocampus [2]: markedly reduced the increased activity of AChE
effect on scopolamine-increased BuChE activity in hippocampus [3]: decreased the increased BuChE activity
effect on TLT vs amnesic group [4, 6]: reduced TLT
effect on TLT vs amnesic group [4, 7]: reduced TLT
discrimination index (DI) [5, 10]: 60.58%
discrimination index (DI) [5, 11]: 62.28%
discrimination index (DI) ([5]; short-term memory, 7.5 mg/kg): 60.16%
discrimination index (DI) ([5]; short-term memory, 15 mg/kg): 61.25%

COc1cc2c(cc1OC)C(=O)C(CC1CCN(Cc3ccccc3)CC1)C2 (stereo not drawn) [Donepezil, reference compound]
transfer latency time (TLT) ([4]; donepezil 2 mg/kg p.o. 7 days, scopolamine 1 mg/kg i.p., p < 0.001 vs amnesic group): 34.57 ± 1.93 s
% DI, familiar object [5, 12]: 32.32%
% DI, novel object [5, 12]: 65.26%
time spent exploring the familiar object [5, 13]: 11.49 ± 1.39 s
time spent exploring the novel object [5, 13]: 21.59 ± 1.44 s

CN(C)c1ccc(/C=C/C(=O)CC(=O)/C=C/c2ccc(N(C)C)cc2)cc1 [Compound 1e, (1E,6E)-1,7-bis(4-(dimethylamino)phenyl)hepta-1,6-diene-3,5-dione]
% spontaneous alternation performance (% SAP) [1, 6]: non-significant
% spontaneous alternation performance (% SAP) [1, 7]: non-significant
IC50 (AChE; [8]): 3270 nM
IC50 (BuChE; [9]): 6640 nM
effect on TLT vs amnesic group [4, 6]: non-significant
effect on TLT vs amnesic group [4, 7]: non-significant
discrimination index (DI) [5, 10]: no significant change
discrimination index (DI) [5, 11]: no significant change
discrimination index (DI) ([5]; short-term memory, 7.5 mg/kg): no promising potential
discrimination index (DI) ([5]; short-term memory, 15 mg/kg): no promising potential

CN1[C@@H]2C[C@@H](OC(=O)[C@H](CO)c3ccccc3)C[C@H]1[C@@H]1O[C@@H]12 [Scopolamine]
% spontaneous alternation performance (% SAP) ([1]; scopolamine 1 mg/kg i.p. alone (amnesic group), normal controls 70.16 ± 4.58): 37.66 ± 3.94%
TLT vs vehicle treated group ([4]; scopolamine 1 mg/kg i.p. alone (amnesic group)): significantly higher transfer latency time

O=C(/C=C/c1ccccc1)CC(=O)/C=C/c1ccccc1 [Compound 1a, (1E,6E)-1,7-diphenylhepta-1,6-diene-3,5-dione]
% spontaneous alternation performance (% SAP) [1, 6]: poor response
% spontaneous alternation performance (% SAP) [1, 7]: poor response
IC50 (AChE; [8]): 2620 nM
IC50 (BuChE; [9]): 5350 nM
effect on TLT vs amnesic group [4, 6]: non-significant
effect on TLT vs amnesic group [4, 7]: non-significant
discrimination index (DI) [5, 10]: no significant change
discrimination index (DI) [5, 11]: no significant change
discrimination index (DI) ([5]; short-term memory, 7.5 mg/kg): 54.53%
discrimination index (DI) ([5]; short-term memory, 15 mg/kg): 55.10%
